The target of experiment [1] is T1, human H4 receptor (Homo sapiens (Human), UniProt Q9H3N8). Put plainly: cell-based. In kind it is cell-based. How it is done:
SK-N-MC cell lines were created that express a reporter gene construct and the human H4 receptor full-coding region (NCBI accession No. AF312230). The reporter gene was β-galactosidase under the control of cyclic AMP-responsive elements. Cells were plated in 96-well plates the night before the assay. Histamine was used as the agonist for all assay. For the H4 receptor, the inhibition of forskolin-stimulated cAMP production was measured. For determination of antagonist activity, compounds were added 10 min prior to the addition of agonist, which was added directly to the cell medium. Forskolin (5 μM final concentration) was added 10 min after the addition of histamine. Cells were returned to the incubator for 6 h at 37° C. The medium was then aspirated, and the cells were washed with […] of phosphate-buffered saline (PBS). Cells were lysed with 25 μL of 0.1X assay buffer (10 mM sodium phosphate, pH 8, 0.2 mM MgSO4, and 0.01 mM MnCl2) and incubated at rt for 10 min. Cells were then incubated for 10 min with 100 μL of 1X assay buffer containing 0.5% (v/v) Triton X-100 and 40 mM β-mercaptoethanol. Color was developed using 25 μL of 1 mg/mL substrate solution (chlorophenol red β-D-galactopyranoside; Roche Applied Science, Indianapolis, Ind.). Color was quantitated on a microplate reader by measuring the absorbance at 570 nm. The data from each concentration-response curve were fitted to a sigmoidal curve to obtain the maximum response, Hill coefficient, and EC50 using Prism (GraphPad Software, San Diego, Calif.). Dose ratios were calculated from individual concentration-response curves of agonists at three to five antagonist concentrations. Apparent pA2 values were calculated using a Schild plot (ND=not determined).

Experiment [2] has as its target T1, human H4 receptor. Put plainly: Binding assay on recombinant human histamine H4 receptor ([3H]histamine competition, SK-N-MC cell membranes). Conditions: [3H]histamine 10 nM, average of results. The procedure, abridged: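 Membranes from SK-N-MC cells stably or transiently transfected with human H4 receptor, prepared by homogenization and 30,000 g centrifugation in Tris/EDTA. Bound [3H]histamine separated by rapid filtration on PEI-treated GF/C filters, washed with ice-cold Tris/EDTA, counted by scintillation. '>' values denote highest concentration tested.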

The mark [3] stands for this setting: apparent pA2 from Schild plot, antagonism of histamine inhibition of forskolin-stimulated cAMP, read-out: pA2 (converted).
[4] abbreviates: membranes harvested with cell harvester, read-out: Cell Harvester Ki.
Where [5] appears, read: apparent pA2 from Schild plot, antagonism of histamine inhibition of forskolin-stimulated cAMP.
[6] abbreviates: membranes harvested with 96 well Brandel system, read-out: Brandel Ki.

Counter-ions that a name gives are not always drawn. Like-named read-outs stand apart in the source and are kept apart here.

T1 sequence (Q9H3N8 whole entry): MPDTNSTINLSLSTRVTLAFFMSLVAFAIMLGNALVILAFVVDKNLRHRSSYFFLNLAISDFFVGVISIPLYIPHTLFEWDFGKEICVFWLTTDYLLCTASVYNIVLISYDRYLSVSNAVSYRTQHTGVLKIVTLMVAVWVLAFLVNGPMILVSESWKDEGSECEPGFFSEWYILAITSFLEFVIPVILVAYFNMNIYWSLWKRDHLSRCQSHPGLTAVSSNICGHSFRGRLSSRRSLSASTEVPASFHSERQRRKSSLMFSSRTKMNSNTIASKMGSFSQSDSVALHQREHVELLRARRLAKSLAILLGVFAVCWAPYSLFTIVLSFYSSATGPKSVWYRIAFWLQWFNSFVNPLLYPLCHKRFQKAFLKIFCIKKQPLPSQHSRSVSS

In general, Ki refers to a measure of affinity in units of concentration, obtained from inhibition or displacement. Take `CNC1CN(c2cnnc(NC3CC4CCC3C4)c2)C1` (stereo not shown) [Example 331, N-Bicyclo[2.2.1]hept-2-yl-5-[3-(methylamino)azetidin-1-yl]pyridazin-3-amine]: the Kb at human H4 receptor [1] (setting [3]) was 39.8 nM. The Ki at human H4 receptor [2] (setting [4]) was 96.7 nM.

In general, pA2 refers to the negative logarithm of the molar antagonist concentration that doubles the agonist concentration needed for the same response. As to `CN[C@@H]1CCN(c2ccnc(NC(C)C)c2)C1` [Example 12, 4-[(3R)-3-(Methylamino)pyrrolidin-1-yl]-N-(1-methylethyl)pyridin-2-amine], the pA2 on human H4 receptor [1] (setting [5]) was determined as 8.5. Besides, at human H4 receptor [2] (setting [4]), the Ki is 19.2 nM. For the molecule `CN[C@@H]1CCN(c2ccnc(NC[C@H]3CC[C@H]4C[C@@H]3C4(C)C)n2)C1` [Example 193, N-{[(1S,2S,5S)-6,6-Dimethylbicyclo[3.1.1]hept-2-yl]methyl}-4-[(3R)-3-(methylamino)pyrrolidin-1-yl]pyrimidin-2-amine], the Kb on human H4 receptor [1] (setting [3]) was 12.6 nM. Also, the Ki at human H4 receptor [2] (setting [4]) turned out to be 16 nM. The corresponding values for `CN[C@H]1CCN(c2cnnc(NC3CCCC3)c2)C1` [Example 380, N-Cyclopentyl-5-[(3S)-3-(methylamino)pyrrolidin-1-yl]pyridazin-3-amine] are 63.1 nM and 54.3 nM. In turn, `CC(C)CNc1cc(N2C[C@H]3CCN[C@H]3C2)ccn1` [Example 257, 4-[(3aR,6aR)-Hexahydropyrrolo[3,4-b]pyrrol-5(1H)-yl]-N-(2-methylpropyl)pyridin-2-amine] had a Kb on human H4 receptor [1] of 50.1 nM. In addition, on human H4 receptor [2] (setting [4]), the inhibition constant Ki was determined as 64.5 nM. Regarding `c1nnc(NC2CC3CCC2C3)cc1N1CCCNCC1` (stereo not shown) [Example 308, N-Bicyclo[2.2.1]hept-2-yl-5-(1,4-diazepan-1-yl)pyridazin-3-amine], the Kb at human H4 receptor [1] (setting [3]) was 79.4 nM. In addition, the inhibition constant (Ki) at human H4 receptor [2] (setting [4]) is 18.4 nM. With `CN[C@@H]1CCN(c2cnnc(NCC(C)C)c2)C1` [Example 95, 5-[(3R)-3-(Methylamino)pyrrolidin-1-yl]-N-(2-methylpropyl)pyridazin-3-amine], the pA2 at human H4 receptor [1] (setting [5]) is on record as 7.8. The Ki on human H4 receptor [2] (setting [6]) and on human H4 receptor [2] (setting [4]) was 15 nM in each case. On to `CN[C@@H]1CCN(c2ccnc(NC[C@H]3CC[C@H]4C[C@@H]3C4(C)C)c2)C1` [Example 217, N-{[(1S,2S,5S)-6,6-Dimethylbicyclo[3.1.1]hept-2-yl]methyl}-4-[(3R)-3-(methylamino)pyrrolidin-1-yl]pyridin-2-amine], for which the Kb on human H4 receptor [1] (setting [3]) is 31.6 nM. In addition, the Ki at human H4 receptor [2] (setting [4]) worked out at 24.3 nM. Turning to `CN[C@H]1CCN(c2ccnc(NC3CC4CCC3C4)n2)C1` (stereo partly drawn) [Example 162, N-Bicyclo[2.2.1]hept-2-yl-4-[(3S)-3-(methylamino)pyrrolidin-1-yl]pyrimidin-2-amine], the pA2 at human H4 receptor [1] (setting [5]) is recorded as 8.1. The Ki at human H4 receptor [2] (setting [4]) was found to be 7.14 nM. Consider `CN[C@@H]1CCN(c2ccnc(NCC3CC3)c2)C1` [Example 4, N-(Cyclopropylmethyl)-4-[(3R)-3-(methylamino)pyrrolidin-1-yl]pyridin-2-amine ditrifluoroacetate], for which the Kb at human H4 receptor [1] (setting [3]) is 1.38 nM. In addition, the inhibitory constant (Ki) on human H4 receptor [2] (setting [4]) is 4.9 nM. In the case of `CN[C@H]1CCN(c2ccnc(NC3CC4CCC3C4)c2)C1` (stereo partly drawn) [Example 231, N-Bicyclo[2.2.1]hept-2-yl-4-[(3S)-3-(methylamino)pyrrolidin-1-yl]pyridin-2-amine], the pA2 on human H4 receptor [1] (setting [5]) was found to be 9. Further, the Ki on human H4 receptor [2] (setting [4]) amounted to 8.41 nM.

In the case of `CN[C@@H]1CCN(c2ccnc(NCC34CC5CC(CC(C5)C3)C4)c2)C1` [Example 220, Adamantan-1-ylmethyl-[4-(3R)-(3-methylamino-pyrrolidin-1-yl)-pyridin-2-yl]-amine], the Kb at human H4 receptor [1] (setting [3]) is 25.1 nM. For the same molecule, the inhibition constant (Ki) at human H4 receptor [2] (setting [4]) was found to be 6.48 nM. With `CC(C)CNc1cc(N2CC[C@@H](N)C2)ccn1` [Example 20, 4-[(3R)-3-Aminopyrrolidin-1-yl]-N-(2-methylpropyl)pyridin-2-amine dihydrochloride], the Kb on human H4 receptor [1] (setting [3]) is 20 nM. Moreover, the inhibition constant Ki at human H4 receptor [2] (setting [6]) was found to be 3.5 nM. As for `CCCNc1cc(N2CC[C@@H](NC)C2)ccn1` [Example 3, 4-[(3R)-3-(Methylamino)pyrrolidin-1-yl]-N-propylpyridin-2-amine dihydrochloride], the Kb on human H4 receptor [1] (setting [3]) was 2 nM. Besides, the inhibitory constant (Ki) at human H4 receptor [2] (setting [4]) is 7.26 nM.

On to `CN[C@@H]1CCN(c2cnnc(NCC(C)(C)C)c2)C1` [Example 392, N-(2,2-Dimethylpropyl)-5-[(3R)-3-(methylamino)pyrrolidin-1-yl]pyridazin-3-amine], for which the Kb at human H4 receptor [1] (setting [3]) is 7.94 nM. For the same molecule, the Ki at human H4 receptor [2] (setting [4]) is 18.3 nM. For the molecule `CN[C@H]1CCN(c2cnnc(NCC3CC4CCC3C4)c2)C1` (stereo partly drawn) [Example 374, N-(Bicyclo[2.2.1]hept-2-ylmethyl)-5-[(3S)-3-(methylamino)pyrrolidin-1-yl]pyridazin-3-amine], the Ki on human H4 receptor [2] (setting [4]) was found to be 298 nM.

On to `CN[C@@H]1CCN(c2cnnc(NCCCO)c2)C1` [Example 390, 3-({5-[(3R)-3-(Methylamino)pyrrolidin-1-yl]pyridazin-3-yl}amino)propan-1-ol], for which the Ki at human H4 receptor [2] (setting [4]) is over 10000 nM. Take `CN[C@H]1CCN(c2ccnc(NCC(C)(C)O)c2)C1` [Example 242, 2-Methyl-1-({4-[(3S)-3-(methylamino)pyrrolidin-1 yl]pyridin-2-yl}amino)propan-2-ol]: the Ki at human H4 receptor [2] (setting [4]) is over 10000 nM.

As for `CNC1CN(c2ccnc(NC3CCCC3)c2)C1` [Example 259, N-Cyclopentyl-4-[3-(methylamino)azetidin-1-yl]pyridin-2-amine], the inhibition constant Ki at human H4 receptor [2] (setting [4]) turned out to be 5.15 nM. Still for that read-out and setting: as for `Fc1ccc(CNc2cc(N3CCNCC3)ccn2)cc1` [Example 40, N-(4-Fluorobenzyl)-4-piperazin-1-ylpyridin-2-amine], the figure is 790 nM; as for `CN[C@@H]1CCN(c2cnnc(NCc3ccc(OC)cc3)c2)C1` [Example 400, N-(4-Methoxybenzyl)-5-[(3R)-3-(methylamino)pyrrolidin-1-yl]pyridazin-3-amine], 2150 nM. Same read-out and setting: as for `N[C@H]1CCN(c2cnnc(NC3CC3)c2)C1` [Example 336, 5-[(3S)-3-Aminopyrrolidin-1-yl]-N-cyclopropylpyridazin-3-amine], the figure is over 10000 nM; as for `N[C@@H]1CCN(c2ccnc(NCC3CCCCC3)n2)C1` [Example 197, 4-[(3R)-3-Aminopyrrolidin-1-yl]-N-(cyclohexylmethyl)pyrimidin-2-amine], 17.3 nM; as for `C[C@@H](Nc1cc(N2CC[C@@H](N)C2)cnn1)c1ccccc1` [Example 321, 5-[(3R)-3-Aminopyrrolidin-1-yl]-N-[(1R)-1-phenylethyl]pyridazin-3-amine], 626 nM. Regarding `COCCNc1nccc(N2CC[C@H](N)C2)n1` [Example 128, 4-[(3S)-3-Aminopyrrolidin-1-yl]-N-(2-methoxyethyl)pyrimidin-2-amine], the Ki at human H4 receptor [2] (setting [4]) came out at 844 nM. Still for that read-out and setting: the value for `NC1CN(c2ccnc(NC3CCCC3)n2)C1` [Example 85, 4-(3-Aminoazetidin-1-yl)-N-cyclopentylpyrimidin-2-amine] was 18.2 nM; that for `CNC1CN(c2cnnc(NC3CC3)c2)C1` [Example 351, N-Cyclopropyl-5-[3-(methylamino)azetidin-1-yl]pyridazin-3-amine] was 206 nM; that for `CN[C@H]1CCN(c2ccnc(NCC3CCCC3)c2)C1` [Example 227, N-(Cyclopentylmethyl)-4-[(3S)-3-(methylamino)pyrrolidin-1-yl]pyridin-2-amine] was 260 nM. Turning to `CC(C)(C)CNc1cc(N2CCCNCC2)cnn1` [Example 307, 5-(1,4-Diazepan-1-y1)-N-(2,2-dimethylpropyl)pyridazin-3-amine], the Ki at human H4 receptor [2] (setting [4]) amounted to 536 nM. The same measure, in the same setting: as for `CNC1CN(c2ccnc(NCC3CCC4CC3C4(C)C)n2)C1` (stereo not shown) [Example 105, N-[(6,6-Dimethylbicyclo[3.1.1]hept-2-yl)methyl]-4-[3-(methylamino)azetidin-1-yl]pyrimidin-2-amine], the figure is 165 nM; as for `c1ccc(CNc2nccc(N3CCNCC3)n2)cc1` [Example 131, N-Benzyl-4-piperazin-1-ylpyrimidin-2-amine], 820 nM.

For `c1cc(N2CCNCC2)cc(NCC2CC2)n1` [Example 35, N-(Cyclopropylmethyl)-4-piperazin-1-ylpyridin-2-amine], the results for the inhibitory constant (Ki) at human H4 receptor [2] (setting [6]) and at human H4 receptor [2] (setting [4]) were 25.6 nM and 74.7 nM, respectively.

The record behind these values is patent publication US9732087B2, “Diamino-pyridine, pyrimidine, and pyridazine modulators of the histamine H4 receptor” (JANSSEN PHARMACEUTICA NV, priority 2008, dated 2017).
